Experimental data: patent US20250011299A1, “PYRIDAZINYL AMINO DERIVATIVES AS ALK5 INHIBITORS” (CHIESI FARMACEUTICI S.P.A., priority 2021, published 2025)

Each compound was assayed against T1, human ALK5 (Homo sapiens, UniProt P36897) (assay: ADP-GLO Kinases assay of ALK5 enzymatic activity). Conditions: purified recombinant human ALK5, TGFβ1 peptide substrate, pIC50 converted to pKi by Cheng-Prusoff, high ATP protocol (15 μM) for very potent compounds, 25° C.
T1 construct: human ALK5 (recombinant TGF β1 N-term GST-tagged, 80-end); GST (N); purchased
T1 sequence (P36897 80-503 limits assumed): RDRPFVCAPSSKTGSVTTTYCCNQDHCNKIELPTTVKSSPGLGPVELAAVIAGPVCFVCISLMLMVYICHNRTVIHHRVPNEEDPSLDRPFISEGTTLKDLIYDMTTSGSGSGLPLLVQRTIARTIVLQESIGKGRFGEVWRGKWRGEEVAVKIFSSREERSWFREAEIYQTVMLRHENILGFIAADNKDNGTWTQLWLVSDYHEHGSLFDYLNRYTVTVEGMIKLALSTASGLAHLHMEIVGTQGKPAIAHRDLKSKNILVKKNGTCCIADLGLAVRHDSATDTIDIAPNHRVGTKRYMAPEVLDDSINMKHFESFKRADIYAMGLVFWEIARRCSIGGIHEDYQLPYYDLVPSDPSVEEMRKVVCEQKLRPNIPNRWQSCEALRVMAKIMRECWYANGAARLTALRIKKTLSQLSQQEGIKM
Type: biochemical
Procedure, shortened: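 Purified ALK5 preincubated 15 min with compound, then reacted with substrate and ATP; ADP formed read by ADP-Glo luminescence after 120 min or 60 min reaction, all steps at 25° C. 11-point concentration-response; pIC50 converted to pKi via Cheng-Prusoff.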
`CN1CCN(CCC(=O)Nc2cc(Nc3cc(-c4cc(Cl)ccc4F)nnc3N3CC(CO)C3)ccn2)CC1` [Example 95, N-(4-{[6-(5-chloro-2-fluorophenyl)-3-[3-(hydroxymethyl)azetidin-1-yl]pyridazin-4-yl]amino}pyridin-2-yl)-3-(4-methylpiperazin-1-yl)propanamide] gave a Ki of at most 0.1 nM.
For `CN1CCC(COC(=O)c2cccc(CSc3nnc(-c4cc(Cl)ccc4F)cc3Nc3ccnc4[nH]ccc34)c2)CC1` [Example 206, (1-methylpiperidin-4-yl)methyl 3-({[6-(5-chloro-2-fluorophenyl)-4-({1H-pyrrolo[2,3-b]pyridin-4-yl}amino)pyridazin-3-yl]sulfanyl}methyl)benzoate], the Ki was 0.126 to 0.316 nM.
In the case of `CN1CCN(CCC(=O)Nc2cc(Nc3cc(-c4cc(Cl)ccc4F)nnc3OCC(O)CO)ccn2)CC1` (centres unmarked) [Example 78, N-(4-{[6-(5-chloro-2-fluorophenyl)-3-(2,3-dihydroxypropoxy)pyridazin-4-yl]amino}pyridin-2-yl)-3-(4-methylpiperazin-1-yl)propanamide], the Ki is reported as at most 0.1 nM.
`CN1CCC2(CCN(C(=O)Nc3cc(Nc4cc(-c5cc(Cl)ccc5F)nnc4SCCO)ccn3)CC2)C1` [Example 26, N-(4-{[6-(5-chloro-2-fluorophenyl)-3-[(2-hydroxyethyl)sulfanyl]pyridazin-4-yl]amino}pyridin-2-yl)-2-methyl-2,8-diazaspiro[4.5]decane-8-carboxamide] gave a Ki of at most 0.1 nM.
Compound `COC(=O)[C@H]1CN(c2nnc(-c3cc(Cl)ccc3F)cc2Nc2ccnc(NC(=O)CCN3CCN(C)CC3)c2)CCO1` (stereo in doubt) [Example 133, methyl 4-[6-(5-chloro-2-fluorophenyl)-4-({2-[3-(4-methylpiperazin-1-yl)propanamido]pyridin-4-yl}amino)pyridazin-3-yl]morpholine-2-carboxylate] has a Ki of 0.126 to 0.316 nM.
`CN1CCN(CCC(=O)Nc2cc(Nc3cc(-c4cc(Cl)ccc4F)nnc3SCC(O)CO)ccn2)CC1` (centres unmarked) [Example 86, N-(4-{[6-(5-chloro-2-fluorophenyl)-3-[(2,3-dihydroxypropyl)sulfanyl]pyridazin-4-yl]amino}pyridin-2-yl)-3-(4-methylpiperazin-1-yl)propanamide] gave a Ki of at most 0.1 nM.
Compound `CN1CCN(CCC(=O)Nc2cc(Nc3cc(-c4cc(Cl)ccc4F)nnc3SCCOCCO)ccn2)CC1` [Example 194, N-(4-{[6-(5-chloro-2-fluorophenyl)-3-{[2-(2-hydroxyethoxy)ethyl]sulfanyl}pyridazin-4-yl]amino}pyridin-2-yl)-3-(4-methylpiperazin-1-yl)propanamide] has a Ki of at most 0.1 nM.
`C[C@@H]1CN(CCC(=O)Nc2cc(Nc3cc(-c4cc(Cl)ccc4F)nnc3SCC[Si](C)(C)C)ncn2)C[C@H](C)N1` [Example 195, N-(6-{[6-(5-chloro-2-fluorophenyl)-3-{[2-(trimethylsilyl)ethyl]sulfanyl}pyridazin-4-yl]amino}pyrimidin-4-yl)-3-(3,5-dimethylpiperazin-1-yl)propanamide] was tested, and the Ki was 0.126 to 0.316 nM.
`CN1CCN(CC23CC(C(=O)Nc4cc(Nc5cc(-c6cc(Cl)ccc6F)nnc5SCCO)ncn4)(C2)C3)CC1` [Example 182, N-(6-{[6-(5-chloro-2-fluorophenyl)-3-[(2-hydroxyethyl)sulfanyl]pyridazin-4-yl]amino}pyrimidin-4-yl)-3-[(4-methylpiperazin-1-yl)methyl]bicyclo[1.1.1]pentane-1-carboxamide] was tested, and the Ki was 0.126 to 0.316 nM.
For `COCC1(CN(C)c2nnc(-c3cc(Cl)ccc3F)cc2Nc2ccnc(NC(=O)CCN3CCN(C)CC3)c2)CCOC1=O` (racemic) [Example 200, N-(4-{[6-(5-chloro-2-fluorophenyl)-3-({[3-(methoxymethyl)-2-oxooxolan-3-yl]methyl}(methyl)amino)pyridazin-4-yl]amino}pyridin-2-yl)-3-(4-methylpiperazin-1-yl)propanamide], the Ki was at most 0.1 nM.
Compound `COc1ccc2c(Nc3cc(-c4cc(Cl)ccc4F)nnc3OCCN3CCN(C)CC3)ccnc2c1` [Example 35, N-[6-(5-chloro-2-fluorophenyl)-3-[2-(4-methylpiperazin-1-yl)ethoxy]pyridazin-4-yl]-7-methoxyquinolin-4-amine] has a Ki of 0.126 to 0.316 nM.
In the case of `CN1CCN(CCC(=O)Nc2cc(Nc3cc(-c4cc(Cl)ccc4F)nnc3SCCO)ncn2)CC1` [Example 176, N-(6-{[6-(5-chloro-2-fluorophenyl)-3-[(2-hydroxyethyl)sulfanyl]pyridazin-4-yl]amino}pyrimidin-4-yl)-3-(4-methylpiperazin-1-yl)propanamide], the Ki is reported as at most 0.1 nM.
In the case of `CN1CCN(CCOc2ccc3c(Nc4cc(-c5cc(Cl)ccc5F)nnc4OCC(F)F)ccnc3c2)CC1` [Example 3, N-[6-(5-chloro-2-fluorophenyl)-3-(2,2-difluoroethoxy)pyridazin-4-yl]-7-[2-(4-methylpiperazin-1-yl)ethoxy]quinolin-4-amine], the Ki is reported as at most 0.1 nM.
`COc1nnc(-c2cc(Cl)ccc2F)cc1Nc1ccnc(NC(=O)CN2CCN(CC(F)(F)F)CC2)c1` [Example 14, N-(4-{[6-(5-chloro-2-fluorophenyl)-3-methoxypyridazin-4-yl]amino}pyridin-2-yl)-2-[4-(2,2,2-trifluoroethyl)piperazin-1-yl]acetamide] gave a Ki of at most 0.1 nM.
Work on `CN1CCN(CCC(=O)Nc2cc(Nc3cc(-c4cc(Cl)ccc4F)nnc3N3CCC3C(=O)O)ccn2)CC1` (centres unmarked) [Example 151, ammonium 1-[6-(5-chloro-2-fluorophenyl)-4-({2-[3-(4-methylpiperazin-1-yl)propanamido]pyridin-4-yl}amino)pyridazin-3-yl]azetidine-2-carboxylate] yielded a Ki of 0.398 to 3.16 nM.
`COCCOc1nnc(-c2cc(Cl)ccc2F)cc1Nc1ccnc(NC(=O)CCN2CCN(CC(F)(F)F)CC2)c1` [Example 33, N-(4-{[6-(5-chloro-2-fluorophenyl)-3-(2-methoxyethoxy)pyridazin-4-yl]amino}pyridin-2-yl)-3-[4-(2,2,2-trifluoroethyl)piperazin-1-yl]propanamide] showed a Ki of at most 0.1 nM.
`CS(=O)(=O)CCCOc1nnc(-c2cc(Cl)ccc2F)cc1Nc1ccnc(N)c1` [Example 56, N4-[6-(5-chloro-2-fluorophenyl)-3-(3-methanesulfonylpropoxy)pyridazin-4-yl]pyridine-2,4-diamine] showed a Ki of 0.398 to 3.16 nM.
`CN1CCN(CC23CC(C(=O)Nc4cc(Nc5cc(-c6cc(Cl)ccc6F)nnc5SCCO)ccn4)(C2)C3)CC1` [Example 180, N-(4-{[6-(5-chloro-2-fluorophenyl)-3-[(2-hydroxyethyl)sulfanyl]pyridazin-4-yl]amino}pyridin-2-yl)-3-[(4-methylpiperazin-1-yl)methyl]bicyclo[11.1.1]pentane-1-carboxamide] showed a Ki of at most 0.1 nM.
Work on `CN1CCN(CCC(=O)Nc2cc(Nc3cc(-c4cc(Cl)ccc4F)nnc3N(C)Cc3cccc(O)c3)ccn2)CC1` [Example 102, N-(4-{[6-(5-chloro-2-fluorophenyl)-3-{[(3-hydroxyphenyl)methyl](methyl)amino}pyridazin-4-yl]amino}pyridin-2-yl)-3-(4-methylpiperazin-1-yl)propanamide] yielded a Ki of 0.126 to 0.316 nM.
`CN1CCN(CCC(=O)Nc2cc(Nc3cc(-c4cc(Cl)ccc4F)nnc3SC[C@H]3C[C@@H](O)C3)ccn2)CC1` [Example 154, N-(4-{[6-(5-chloro-2-fluorophenyl)-3-{[(3-hydroxycyclobutyl)methyl]sulfanyl}pyridazin-4-yl]amino}pyridin-2-yl)-3-(4-methylpiperazin-1-yl)propanamide] showed a Ki of at most 0.1 nM.
